Here are results for 27 compounds from patent US12227511B2, “Bicyclic compounds as kinase modulators, methods and uses thereof” (Agency for Science, Technology and Research, priority 2018, dated 2025).

Structures are written as SMILES. Where a name gives a salt, the structure may show the parent alone. Where only a bound is given, the exact number is not on record here.

One data set relates to hepatocellular carcinoma (HCC).
Assay: not given
The settings on record: HCC patients, Sorafenib vs placebo; cited from earlier work.
Take `CNC(=O)c1cc(Oc2ccc(NC(=O)Nc3ccc(Cl)c(C(F)(F)F)c3)cc2)ccn1` [Sorafenib]: the “increase of survival rate compared to a placebo” value is 2.8 months.

Still in this data set, the particulars now being: HCC patients, Sorafenib; cited from earlier work.
Regarding `CNC(=O)c1cc(Oc2ccc(NC(=O)Nc3ccc(Cl)c(C(F)(F)F)c3)cc2)ccn1` [Sorafenib], the median survival rate entry is reported as “about 10.7 months”.

For the next data set, the system named is hepatocellular carcinoma (HCC).
Assay: not given
The following applies: clinical; cited from earlier work.
`COc1cc2nccc(Oc3ccc(NC(=O)C4(C(=O)Nc5ccc(F)cc5)CC4)cc3)c2cc1OC` [Cabozantinib]: the “incidence of adverse events (AEs) compared to Regorafenib” value is “higher incidence of adverse events”.

The subject of the next data set is hepatocellular carcinoma (HCC).
Assay: not given
The following applies: HCC patients taking Stivarga (Regorafenib); cited from earlier work.
Take `CNC(=O)c1cc(Oc2ccc(NC(=O)Nc3ccc(Cl)c(C(F)(F)F)c3)c(F)c2)ccn1` [Regorafenib]: the median overall survival entry is on record as “about 10.6 months”.

The subject of the next data set is HCCLM3 cells. Kind of data set: GI50 in HCCLM3 cells, cell viability by MTS assay. The settings on record: Homo sapiens, 72 hours incubation, triplicates, read-out: HCCLM3 activity range (GI50). It is filed as cell-based. Here is the method:
To investigate the effects of compounds on hepatocellular carcinoma (HCC) cell viability, HCCLM3 cells (HCC cells with high metastatic potential) were incubated with increasing concentrations of test compounds for 72 hours. Cell viability was evaluated at the end of incubation period by MTS assay. […] All samples were evaluated in triplicates.
As set forth in Table 1 below, GI50 values are defined as follows: GI50≤10 μM (+++); GI50>10 μM and ≤20 μM (++); GI50>20 μM (+).
For orientation: Formazan colour is commonly taken as a measure of viable cells.
A word on the GI50: it is the concentration that inhibits growth by half. Consider `COc1cc2nccc(Oc3ccc(NC(=O)C4(C(=O)NC56CC(NC(C)=O)(C5)C6)CC4)cc3)c2cc1OC` [Compound 13, N-(3-acetamidobicyclo[1.1.1]pentan-1-yl)-N-(4-((6,7-dimethoxyquinolin-4-yl)oxy)phenyl)cyclopropane-1,1-dicarboxamide], for which the GI50 was greater than 20 µM.

Consider `COc1cc2nccc(Oc3ccc(NC(=O)C4(C(=O)NC56CC(NC(=O)C7(C(=O)Nc8ccc(Oc9ccnc%10cc(OC)c(OC)cc9%10)cc8)CC7)(C5)C6)CC4)cc3)c2cc1OC` [Compound 14, N,N′-(bicyclo[1.1.1]pentane-1,3-diyl)bis(N-(4-((6,7-dimethoxyquinolin-4-yl)oxy)phenyl)cyclopropane-1,1-dicarboxamide)], for which the GI50 was greater than 20 µM.

With `COC(=O)C12CCC(NC(=O)C3(C(=O)Nc4ccc(Oc5ccnc6cc(OC)c(OC)cc56)cc4)CC3)(CC1)CC2` [Compound 15, methyl 4-(1-((4-((6,7-dimethoxyquinolin-4-yl)oxy)phenyl)carbamoyl)cyclopropane-1-carboxamido)bicyclo[2.2.2]octane-1-carboxylate], the GI50 is greater than 20 µM.

Regarding `CCOC(=O)[C@@H]1C2CCC(CC2)[C@H]1NC(=O)C1(C(=O)Nc2ccc(Oc3ccnc4cc(OC)c(OC)cc34)cc2)CC1` [Compound 16, ethyl (2R,3R)-3-(1-((4-((6,7-dimethoxyquinolin-4-yl)oxy)phenyl)carbamoyl)cyclopropane-1-carboxamido)bicyclo[2.2.2]octane-2-carboxylate], the GI50 was greater than 20 µM.

On to `COc1cc2nccc(Oc3ccc(NC(=O)C4(C(=O)NC56CNCC5C6)CC4)cc3)c2cc1OC` (stereo not shown) [Compound 17, N-(3-azabicyclo[3.1.0]hexan-1-yl)-N-(4-((6,7-dimethoxyquinolin-4-yl)oxy)phenyl)cyclopropane-1,1-dicarboxamide], for which the GI50 is greater than 20 µM.

As to `COc1cc2nccc(Oc3ccc(NC(=O)C4(C(=O)NC56CC5CN(C(C)=O)C6)CC4)cc3)c2cc1OC` (stereo not shown) [Compound 18, N-(3-acetyl-3-azabicyclo[3.1.0]hexan-1-yl)-N-(4-((6,7-dimethoxyquinolin-4-yl)oxy)phenyl)cyclopropane-1,1-dicarboxamide], the GI50 was greater than 20 µM.

In the case of `COc1cc2nccc(Oc3ccc(NC(=O)C4(C(=O)N5[C@@H]6CC[C@H]5C[C@@H](OC)C6)CC4)cc3)c2cc1OC` [Compound 19, N-(4-((6,7-dimethoxyquinolin-4-yl)oxy)phenyl)-1-((1R,3r,5S)-3-methoxy-8-azabicyclo[3.2.1]octane-8-carbonyl)cyclopropane-1-carboxamide], the GI50 was greater than 20 µM.

For the compound `COc1cc2nccc(Oc3ccc(NC(=O)C4(C(=O)N5C[C@@H]6COC[C@@H](C6)C5)CC4)cc3)c2cc1OC` [Compound 20, 1-((1R,5S)-3-oxa-7-azabicyclo[3.3.1]nonane-7-carbonyl)-N-(4-((6,7-dimethoxyquinolin-4-yl)oxy)phenyl)cyclopropane-1-carboxamide], the GI50 is greater than 20 µM.

For the compound `COc1cc2nccc(Oc3ccc(NC(=O)C4(C(=O)N5[C@@H]6CC[C@H]5C[C@H](C#N)C6)CC4)cc3)c2cc1OC` [Compound 21, EXO-1-(3-cyano-8-azabicyclo[3.2.1]octane-8-carbonyl)-N-(4-((6,7-dimethoxyquinolin-4-yl)oxy)phenyl)cyclopropane-1-carboxamide], the GI50 is greater than 20 µM.

On to `COc1cc2nccc(Oc3ccc(NC(=O)C4(C(=O)N5C[C@@H]6[C@H](C5)[C@H]6C(N)=O)CC4)cc3)c2cc1OC` [Compound 22, EXO-3-(1-((4-((6,7-dimethoxyquinolin-4-yl)oxy)phenyl)carbamoyl)cyclopropane-1-carbonyl)-3-azabicyclo[3.1.0]hexane-6-carboxamide], for which the GI50 was greater than 20 µM.

On to `COc1cc2nccc(Oc3ccc(NC(=O)C4(C(=O)NC5C[C@H]6CC[C@@H](C5)N6C)CC4)cc3)c2cc1OC` (stereo partly drawn) [Compound 23, ENDO-N-(4-((6,7-dimethoxyquinolin-4-yl)oxy)phenyl)-N-((1R,3r,5S)-8-methyl-8-azabicyclo[3.2.1]octan-3-yl)cyclopropane-1,1-dicarboxamide], for which the GI50 was greater than 20 µM.

With `COc1cc2nccc(Oc3ccc(NC(=O)C4(C(=O)NC56CCC(CC5)CC6)CC4)cc3)c2cc1OC` [Compound 24, N-(bicyclo[2.2.2]octan-1-yl)-N-(4-((6,7-dimethoxyquinolin-4-yl)oxy)phenyl)cyclopropane-1,1-dicarboxamide], the GI50 was in the range of 10 to 20 µM.

Turning to `COc1cc2nccc(Oc3ccc(NC(=O)C4(C(=O)NC56CCC(CC5)C6)CC4)cc3)c2cc1OC` [Compound 25, N-((1s,4s)-bicyclo[2.2.1]heptan-1-yl)-N-(4-((6,7-dimethoxyquinolin-4-yl)oxy)phenyl)cyclopropane-1,1-dicarboxamide], the GI50 was no more than 10 µM.

For the compound `COc1cc2nccc(Oc3ccc(NC(=O)C4(C(=O)N5C6CCCC5CCC6)CC4)cc3)c2cc1OC` [Compound 26, 1-((1s,5s)-9-azabicyclo[3.3.1]nonane-9-carbonyl)-N-(4-((6,7-dimethoxyquinolin-4-yl)oxy)phenyl)cyclopropane-1-carboxamide], the GI50 is greater than 20 µM.

As to `COc1cc2nccc(Oc3ccc(NC(=O)C4(C(=O)N5CC6CC6C5)CC4)cc3)c2cc1OC` (stereo not shown) [Compound 27, 1-(3-azabicyclo[3.1.0]hexane-3-carbonyl)-N-(4-((6,7-dimethoxyquinolin-4-yl)oxy)phenyl)cyclopropane-1-carboxamide], the GI50 is greater than 20 µM.

For the compound `COc1cc2nccc(Oc3ccc(NC(=O)C4(C(=O)NC56CC7CC(CC(C7)C5)C6)CC4)cc3)c2cc1OC` [Compound 28, N-((3R,5R)-adamantan-1-yl)-N-(4-((6,7-dimethoxyquinolin-4-yl)oxy)phenyl)cyclopropane-1,1-dicarboxamide], the 50% growth inhibitory concentration (GI50) was 10 to 20 µM.

As to `COc1cc2nccc(Oc3ccc(NC(=O)C4(C(=O)NC56CC(C(=O)O)(C5)C6)CC4)cc3)c2cc1OC` [Compound 29, 3-(1-((4-((6,7-dimethoxyquinolin-4-yl)oxy)phenyl)carbamoyl)cyclopropane-1-carboxamido)bicyclo[1.1.1]pentane-1-carboxylic acid hydrochloride], the GI50 is greater than 20 µM.

On to `COCC12CC(NC(=O)C3(C(=O)Nc4ccc(Oc5ccnc6cc(OC)c(OC)cc56)cc4)CC3)(C1)C2` [Compound 30, N-(4-((6,7-dimethoxyquinolin-4-yl)oxy)phenyl)-N-(3-(methoxymethyl)bicyclo[1.1.1]pentan-1-yl)cyclopropane-1,1-dicarboxamide], for which the GI50 lay in the range of 10 to 20 µM.

As to `COC(=O)C12CC(NC(=O)C3(C(=O)Nc4ccc(Oc5ccnc6cc(OC)c(OC)cc56)cc4)CC3)(C1)C2` [Compound 31, methyl 3-(1-((4-((6,7-dimethoxyquinolin-4-yl)oxy)phenyl)carbamoyl)cyclopropane-1-carboxamido)bicyclo[1.1.1]pentane-1-carboxylate], the GI50 was no more than 10 µM.

`COc1cc2nccc(Oc3ccc(NC(=O)C4(C(=O)NC56CC(CO)(C5)C6)CC4)cc3)c2cc1OC` [Compound 32, N-(4-((6,7-dimethoxyquinolin-4-yl)oxy)phenyl)-N-(3-(hydroxymethyl)bicyclo[1.1.1]pentan-1-yl)cyclopropane-1,1-dicarboxamide]: the GI50 is no more than 10 µM.

Regarding `COc1cc2nccc(Oc3ccc(NC(=O)C4(C(=O)NC56CC(C#N)(C5)C6)CC4)cc3)c2cc1OC` [Compound 33, N-(3-cyanobicyclo[1.1.1]pentan-1-yl)-N-(4-((6,7-dimethoxyquinolin-4-yl)oxy)phenyl)cyclopropane-1,1-dicarboxamide], the GI50 was in the range of 10 to 20 µM.

On to `COc1cc2nccc(Oc3ccc(NC(=O)C45CC(C(=O)NC67CCC(CC6)C7)(C4)C5)cc3)c2cc1OC` [Compound 34, N1-((1s,4s)-bicyclo[2.2.1]heptan-1-yl)-N3-(4-((6,7-dimethoxyquinolin-4 yl)oxy)phenyl)bicyclo[1.1.1]pentane-1,3-dicarboxamide], for which the GI50 was greater than 20 µM.

Consider `COc1cc2nccc(Oc3ccc(NC(=O)C45CC(C(=O)N6CC7CC7C6)(C4)C5)cc3)c2cc1OC` (stereo not shown) [Compound 35, 3-(3-azabicyclo[3.1.0]hexane-3-carbonyl)-N-(4-((6,7-dimethoxyquinolin-4-yl)oxy)phenyl)bicyclo[1.1.1]pentane-1-carboxamide], for which the GI50 is greater than 20 µM.

For `COc1cc2nccc(Oc3ccc(NC(=O)C45CC(C(=O)NC6CC6)(C4)C5)cc3)c2cc1OC` [Compound 36, N1-cyclopropyl-N3-(4-((6,7-dimethoxyquinolin-4-yl)oxy)phenyl)bicyclo[1.1.1]pentane-1,3-dicarboxamide], the GI50 was greater than 20 µM.
